Test results from ChEMBL document CHEMBL1122903, “Synthesis, in vitro [3H]prazosin displacement, and in vivo activity of 3-aryl-4,5,6,7-tetrahydropyrazolo[4,3-c]pyridines, a new class of antihypertensive agents” (J Med Chem, 1985).

Experiments:
[1] = target: T1, Adrenergic receptor alpha-1 (Rattus norvegicus, UniProt P15823+P23944+P43140); assay: Ability to displace [3H]prazosin from postsynaptic alpha-1 adrenergic receptor of rat in vitro.; format: protein assay
T1 sequence (P15823 whole entry): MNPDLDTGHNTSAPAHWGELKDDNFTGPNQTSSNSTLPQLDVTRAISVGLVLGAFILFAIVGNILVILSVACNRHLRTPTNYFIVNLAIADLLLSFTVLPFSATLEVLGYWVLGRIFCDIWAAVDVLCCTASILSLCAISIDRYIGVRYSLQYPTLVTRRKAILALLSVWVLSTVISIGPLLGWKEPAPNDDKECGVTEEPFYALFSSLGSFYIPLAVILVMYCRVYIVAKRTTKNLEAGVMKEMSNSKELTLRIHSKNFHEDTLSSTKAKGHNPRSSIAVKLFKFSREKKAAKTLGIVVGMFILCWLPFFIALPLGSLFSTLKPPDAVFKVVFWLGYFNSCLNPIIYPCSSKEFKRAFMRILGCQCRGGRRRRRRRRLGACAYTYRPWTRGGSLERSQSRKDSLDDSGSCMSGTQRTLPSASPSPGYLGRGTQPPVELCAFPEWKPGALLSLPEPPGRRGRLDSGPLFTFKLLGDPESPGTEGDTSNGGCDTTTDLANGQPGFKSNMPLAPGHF
T1 sequence (P23944 whole entry): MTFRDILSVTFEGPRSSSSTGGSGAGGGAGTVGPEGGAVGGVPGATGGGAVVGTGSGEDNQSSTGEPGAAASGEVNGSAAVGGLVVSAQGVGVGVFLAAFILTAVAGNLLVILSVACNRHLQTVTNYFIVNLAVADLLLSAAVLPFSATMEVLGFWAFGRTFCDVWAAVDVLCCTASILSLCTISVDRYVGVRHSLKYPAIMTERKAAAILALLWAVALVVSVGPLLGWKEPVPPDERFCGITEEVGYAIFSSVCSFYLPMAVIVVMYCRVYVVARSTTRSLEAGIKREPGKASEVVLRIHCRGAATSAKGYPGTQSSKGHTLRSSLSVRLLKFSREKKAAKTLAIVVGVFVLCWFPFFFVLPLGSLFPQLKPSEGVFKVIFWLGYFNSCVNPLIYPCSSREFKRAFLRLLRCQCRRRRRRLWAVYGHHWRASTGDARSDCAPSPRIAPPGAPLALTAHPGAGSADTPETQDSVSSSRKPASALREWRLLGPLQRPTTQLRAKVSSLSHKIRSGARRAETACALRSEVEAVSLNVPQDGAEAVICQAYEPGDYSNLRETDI
T1 sequence (P43140 whole entry): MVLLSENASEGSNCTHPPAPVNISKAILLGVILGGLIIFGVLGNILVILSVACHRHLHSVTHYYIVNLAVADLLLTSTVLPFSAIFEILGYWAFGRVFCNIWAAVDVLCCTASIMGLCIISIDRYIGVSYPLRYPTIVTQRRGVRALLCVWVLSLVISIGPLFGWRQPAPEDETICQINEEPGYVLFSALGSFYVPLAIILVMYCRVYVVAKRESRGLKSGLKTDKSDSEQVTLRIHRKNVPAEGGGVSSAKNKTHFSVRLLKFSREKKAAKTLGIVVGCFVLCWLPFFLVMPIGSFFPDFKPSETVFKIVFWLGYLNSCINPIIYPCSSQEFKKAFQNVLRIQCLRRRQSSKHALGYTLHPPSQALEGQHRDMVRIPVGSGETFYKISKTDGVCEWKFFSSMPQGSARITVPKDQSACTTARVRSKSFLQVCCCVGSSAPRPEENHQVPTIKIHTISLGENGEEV

[2] = test system: Rattus norvegicus; assay: Antihypertensive activity on spontaneously hypertensive rats when administered orally at a dose 50 mg/kg.; format: functional; details: route oral
[3] = test system: Rattus norvegicus; assay: Antihypertensive activity on spontaneously hypertensive rats, when administered intravenously at a dose 10 mg/kg; format: functional; details: route intravenous
[4] = test system: Rattus norvegicus; assay: Antihypertensive activity on spontaneously hypertensive rats, when administered orally at a dose 20 mg/kg; format: functional; details: route oral

Row | Ki [1] [µM] | SMILES | Delta p [2] [%] | Delta p [3] [%] | Delta p [4] [%]
1 | > 3 | Fc1ccccc1-c1[nH]nc2c1CNCC2 | 0 | – | –
2 | 0.0403 | CN1CCc2c(c(-c3ccc(F)cc3)nn2CCc2ccccc2)C1 | 0 | – | –
3 | 0.0152 | CCCCCCn1nc(-c2ccc(F)cc2)c2c1CCN(C)C2.CS(=O)(=O)O | -16 | – | –
4 | > 3 | CCN1CCc2n[nH]c(-c3ccc(OC)cc3)c2C1 | 0 | – | –
5 | 0.0242 | CCCn1nc(-c2ccc(F)cc2)c2c1CCNC2.CS(=O)(=O)O | -33 | – | –
6 | 0.35 | CCN1CCc2n[nH]c(-c3ccc(C)cc3)c2C1.O=C(O)CC(=O)O | 0 | – | –
7 | 1.3 | CN1CCc2n[nH]c(-c3ccccc3)c2C1.O=C(O)CC(O)(CC(=O)O)C(=O)O | 0 | – | –
8 | > 3 | Clc1cccc(-c2[nH]nc3c2CNCC3)c1 | 0 | – | –
9 | 0.0129 | CS(=O)(=O)O.Fc1ccc(-c2nn(CCCc3ccccc3)c3c2CNCC3)cc1 | – | -37 | –
10 | 0.0072 | CC(c1ccccc1)n1nc(-c2ccc(F)cc2)c2c1CCNC2.CS(=O)(=O)O (stereo unspecified) | – | – | -15
11 | 0.0087 | CCCCCn1nc(-c2ccc(F)cc2)c2c1CCNC2.CS(=O)(=O)O | – | – | -20
12 | 0.206 | CN1CCc2c(c(-c3ccc(F)cc3)nn2-c2ccc(F)cc2)C1.CS(=O)(=O)O | – | – | 0
13 | 1.1 | CC(C)n1nc(-c2ccccc2)c2c1CCNC2 | 0 | – | –
14 | > 3 | COc1ccc(-c2[nH]nc3c2CNCC3)cc1OC | 0 | – | –
15 | > 3 | Fc1cccc(-c2[nH]nc3c2CNCC3)c1 | 0 | – | –
16 | 2.02 | CCn1nc(-c2ccc(F)cc2)c2c1CCN(Cc1ccccc1)C2.CS(=O)(=O)O | -23 | – | –
17 | 0.0325 | CCn1nc(-c2ccc(F)cc2)c2c1CCNC2.CS(=O)(=O)O | – | – | -37
18 | 1.06 | Cn1nc(-c2ccc(F)cc2)c2c1CCNC2 | 0 | – | –
19 | 0.0976 | CC(C)N1CCc2c(c(-c3ccc(F)cc3)nn2Cc2ccccc2)C1 | -20 | – | –
20 | 0.448 | COc1ccc(-c2[nH]nc3c2CNCC3)cc1 | -15 | – | –
21 | > 3 | N#Cc1ccc(-c2[nH]nc3c2CNCC3)cc1 | 0 | – | –
22 | 0.0173 | CCCCn1nc(-c2ccc(F)cc2)c2c1CCNC2.CS(=O)(=O)O | – | -30 | –
23 | 3.4 | CCN1CCc2n[nH]c(-c3ccc(F)cc3)c2C1.O=C(O)CC(=O)O | 0 | – | –
24 | 0.0403 | CS(=O)(=O)O.Fc1ccc(-c2nn(CCc3ccccc3)c3c2CNCC3)cc1 | -15 | – | –

Row | Ki [1] [µM] | SMILES | Delta p [2] [%] | Delta p [3] [%] | Delta p [4] [%]
25 | 0.249 | Cc1ccc(-c2[nH]nc3c2CN(C)CC3)cc1.Cc1ccc(S(=O)(=O)O)cc1 | – | – | 0
26 | 2 | CN1CCc2n[nH]c(-c3ccc(Cl)cc3)c2C1.O=C(O)CC(O)(CC(=O)O)C(=O)O | 0 | – | –
27 | 0.507 | CN1CCc2n[nH]c(-c3ccc(F)cc3)c2C1 | – | – | 0
28 | 0.0922 | Cc1ccc(-c2[nH]nc3c2CNCC3)cc1.Cl.Cl | – | – | 0
29 | 0.49 | Cl.Cl.c1ccc(-c2[nH]nc3c2CNCC3)cc1 | -18 | – | –
30 | 0.0328 | CCCCn1nc(-c2ccc(F)cc2)c2c1CCN(C)C2.CS(=O)(=O)O | -18 | – | –
31 | 0.0735 | CCCn1nc(-c2ccc(F)cc2)c2c1CCN(C)C2.CS(=O)(=O)O | -25 | – | –
32 | 0.0692 | Fc1ccc(-c2[nH]nc3c2CNCC3)cc1 | -37 | – | –
33 | 3.29 | CS(=O)(=O)O.Cn1nc(-c2ccccc2)c2c1CCNC2 | 0 | – | –
34 | > 3 | Cn1nc(-c2cccc(Cl)c2)c2c1CCNC2 | 0 | – | –
35 | 2.87 | CC(C)n1nc(-c2ccccc2)c2c1CCN(C)C2.CS(=O)(=O)O | 0 | – | –
36 | > 3 | Cn1nc(-c2cccc(F)c2)c2c1CCNC2 | 0 | – | –
37 | 0.0212 | CN1CCc2c(c(-c3ccc(F)cc3)nn2Cc2ccccc2)C1.CS(=O)(=O)O | -18 | – | –
38 | > 3 | Cc1ccc(S(=O)(=O)O)cc1.Cn1nc(-c2ccccc2F)c2c1CCNC2 | 0 | – | –
39 | 0.013 | CCCCCCn1nc(-c2ccc(F)cc2)c2c1CCNC2.CS(=O)(=O)O | 0 | – | –
40 | 0.0183 | CCCCCn1nc(-c2ccc(F)cc2)c2c1CCN(C)C2.CS(=O)(=O)O | – | – | -21
41 | 0.119 | CCCCN1CCc2c(c(-c3ccc(F)cc3)nn2Cc2ccccc2)C1.Cl | -16 | – | –
42 | 0.0424 | Cl.Fc1ccc(-c2nn(Cc3ccccc3)c3c2CN(C2CCCC2)CC3)cc1 | -18 | – | –
43 | 1.5 | CCN1CCc2n[nH]c(-c3ccccc3)c2C1.Cl | 0 | – | –
44 | 0.161 | Cl.Fc1ccc(-c2nn(-c3ccc(F)cc3)c3c2CNCC3)cc1 | – | – | 0
45 | 0.0206 | CN1CCc2c(c(-c3ccc(F)cc3)nn2CCCc2ccccc2)C1.Cl | 0 | – | –
46 | 0.19 | Cl.Cn1nc(-c2ccc(Cl)cc2)c2c1CCNC2 | -26 | – | –
47 | > 3 | Cl.O=[N+]([O-])c1ccc(-c2[nH]nc3c2CNCC3)cc1 | 0 | – | –
48 | 0.0081 | CC(c1ccccc1)n1nc(-c2ccc(F)cc2)c2c1CCN(C)C2.Cl (stereo unspecified) | – | – | -15
